Our source for the melting point values is a melting point compilation (Tetko et al.; mined from patent text by program, amines drawn as free bases though some values may be those of a salt).

In turn, `CS(=O)c1ccc(-n2cnc3ccc(-c4nnc(SCc5cccc(C(F)(F)F)c5)o4)cc32)cc1` (centres undefined) came in with a melting point of 88 to 91 °C. The same measure for `CCOC(=O)c1cn2c(nc1=O)CCCCC2`: 156 to 157 °C. `O=C(O)c1nnc2ccc(NCCCN3CCC(OC(c4ccccc4)c4ccccc4)CC3)nn12` displayed a melting point of 102 to 104 °C.

`CCOC(=O)c1cn(C2CC2)c2cc(C3CCN(C(C)=O)CC3)c(F)cc2c1=O` yielded a melting point of 195 to 201 °C. `CCOC(=O)Cc1c(-c2ccccc2)n[nH]c1-c1ccccc1` came in with a melting point of 117 to 118 °C. The compound `CC(C)c1cc(-c2ccc(F)cc2)nc(N(C)S(C)(=O)=O)n1` returned a melting point of 138 to 139 °C. Under `CC(C)Oc1ccc(-c2ccc3c(c2)C=C(C(=O)Nc2ccc(CN(C)C4CCOCC4)cc2)CCS3(=O)=O)cc1` stands 245 to 247 °C; under `CN(C)CCNC(=O)c1ccccc1-c1nnc(CSCCOc2ccccc2)o1`, 80 to 85 °C. `Cc1cccc(Cl)c1NC(=O)Nc1cc(N[C@H]2CC[C@H](O[Si](C)(C)C(C)(C)C)CC2)ncn1` displayed a melting point of 218 to 220 °C. The same measure for `O=C(O)c1cc(Cl)c(OCc2ccccc2)c(Cl)c1`: 211 to 213 °C; for `O=c1c2ccc3[nH]cc(CCNS(=O)(=O)c4ccccc4)c3c2ccn1Cc1ccccc1`: 205 to 206 °C; for `CC(C)n1nc(-c2ccc(=O)[nH]c2-c2ccccc2)ccc1=O`: 107 to 109 °C. Under `CCCCC(CC)COc1ccc2cc3cc(OCC(CC)CCCC)ccc3cc2c1` (centres undefined) stands 60 to 62 °C. Under `CCCc1nc2c(N)nc3cc(OCCCCCCNS(C)(=O)=O)ccc3c2n1CCCCNS(C)(=O)=O` stands 138 to 140 °C. In turn, `COc1ccc(Cc2ccc(NC3=NCCN3)cc2)s1` returned a melting point of 122 to 123 °C. For the compound `Brc1ccc(-c2ccc3nncn3n2)cc1`, the melting point is 209 to 211 °C. In turn, `O=C(NCC1CCCCC1)c1c(Cl)ccc2nc(N3CC(O)C3)ccc12` gave a melting point of 206 to 208 °C. Consider `COc1cc2ncnc(N3CCN(C(=O)Nc4ccncc4)CC3)c2cc1OC`, for which the melting point was in the range of 141 to 143 °C. The same measure for `CC1CCCN(CC(O)c2ccccc2)C1` (centres undefined): 70 °C; for `O=C(O)CCCC/C=C(\c1cccnc1)c1ccc2c(c1)OCO2`: 90 to 91 °C; for `NC(=O)C(=O)NC(C(=O)O)c1ccco1` (centres undefined): 174 °C. The same measure for `CN(C)C=Nc1c(C#N)c(=O)n(C)c(=O)n1C`: 174 to 175 °C. The same measure for `CON1C=Cc2ccccc2C1`: 113 to 114 °C. Turning to `Cc1ccc(C(=O)CC(C)C(=O)O)cc1` (centres undefined), the melting point lay in the range of 168 to 170 °C.

As for `CC[C@@H](C)[C@H](NC(=O)NCCNC(=O)OC(C)(C)C)C(=O)OC`, the melting point lay within 86 to 89 °C. Compound `CC(C)C1(C)N=C(c2c(C(=O)O)ccc3c2nnn3C)NC1=O` (centres undefined) came in with a melting point of 250 to 254 °C. The compound `COC(=O)c1cc(Cl)c2nc(C)cn2c1N` showed a melting point of 188 to 191 °C.

`CC(C)c1nc(-c2cccnc2)c[nH]c1=O` had a melting point of 200 to 202 °C. The same measure for `Nc1nccnc1C(=O)Nc1ccccc1Cl`: 177 to 179 °C.

`CC(C)=NOc1cc(OCc2ccccc2)ccc1C#N` returned a melting point of 102 °C. The same measure for `COc1cc(Nc2nccc(-c3ccc(N4CC(C)NC(C)C4)nc3)n2)cc(OC)c1OC` (centres undefined): 110 to 111 °C; for `O=c1[nH]c2cc(Cl)ccc2n1CCO`: 176 to 178 °C; for `CC(C)(C)c1ccc(CCCCC(O)CC2CCCC2)cc1NC(=O)CC1c2ccccc2Oc2ccccc21` (centres undefined): 132 to 133 °C. In turn, `O=C1CCC(N2Cc3cc(CNC(=O)Nc4cccc(Cl)c4)ccc3C2=O)C(=O)N1` (centres undefined) came in with a melting point of 215 to 217 °C.

With `COc1ccc(-c2nc(-c3ccc(OCCO)cc3O)nc(-c3ccc(OCCO)cc3OCCO)n2)cc1`, the melting point came out at 172 °C. The same measure for `Cc1ccc(Cl)c2c1N(C1CC1)CNS2(=O)=O`: 215 to 217 °C; for `Cc1oc(-c2ccccc2)nc1COc1ccc(/C=C/C(=O)C(=O)O)cc1`: 197 to 198 °C. The same measure for `CCCn1nc2c(N)nc3ccccc3c2c1CCCCCl`: 172 to 173 °C. Under `N#Cc1ccc2[nH]cc(C3=CCC4(CC3)OCCO4)c2c1` stands 158 to 160 °C.

Take `O=C(Nc1c(C(O)(C(F)(F)F)C(F)(F)F)ccc2ccccc12)c1ccc(C(F)(F)F)cc1`: the melting point was 191 to 192 °C. As for `Cc1ccccc1C(=O)NCN1CCN(c2ccccc2C#N)CC1`, the melting point was in the range of 62 to 64 °C. The same measure for `CCN(CCCN1c2ccccc2N(C)C(=O)c2ccc(C)nc21)C(C)C`: 104 to 105 °C; for `C#CCn1cnc2c(N)nc3ccccc3c21`: 220 to 222 °C. Under `CCCCCCCCc1ccc(OCC(=O)Cn2ccc3cc(C(=O)O)ccc32)cc1` stands 122 to 124 °C.

Compound `O=C(Nc1ccc(C(=O)N2Cc3cccn3Cc3ccccc32)c(Cl)c1)c1ccccc1-c1cccs1` came in with a melting point of 132 to 136 °C. The same measure for `O=C(NCC(=O)N(c1ccccc1)c1ccccc1)c1ccc2ccccc2c1`: 205 °C; for `O=C(CN1CCN(c2cnccn2)CC1)N1CC=C(c2ccc(Cl)cc2)CC1`: 139 to 141 °C; for `COc1ccc(-c2cc(C(=O)O)n(C)n2)cc1`: 190 to 193 °C. The same measure for `c1cnc2c(c1)-c1nc(NC3CCNCC3)ncc1-c1ccncc1N2`: 189 to 191 °C; for `OCc1cn(Cc2ccc(OCc3csc(-c4ccccc4)n3)cc2)nc1-c1cccs1`: 147 to 148 °C. The same measure for `C/C(=N\OCCOc1ccc(C(=O)O)c(Cl)c1)c1ccc(C(C)(C)C)cc1`: 143 to 144 °C; for `COc1ccc(C=Nc2ccc(S(=O)(=O)NC(C)(C)C)cc2)cc1F`: 129 to 131 °C. `CC(C)N(CCN1C(=O)/C(=N/NC(=O)NC2CCCCC2)c2ccccc21)C(C)C`: the melting point was in the range of 164 to 166 °C. The same measure for `Cc1nn(C(=O)NC(C)C)c(=O)n1C`: 81 °C; for `CCOC(=O)CCCCOc1ccc(N2CCN(c3ccncc3)CC2)cc1`: 79 to 82 °C; for `COC(=O)COc1ccc(NC(=O)NC(=O)c2ccc(C#N)cc2)cc1`: 214 to 217 °C.

As to `CCc1[nH]n(C2CCCC2)c2nc(Cc3ccc(OC)c(OC)c3)nc(=O)c1-2`, the melting point was 148 to 149 °C.

In turn, `O=Cc1ccc(Sc2nc3ncccc3[nH]2)o1` returned a melting point of 188 °C. The same measure for `CCc1[nH]n(C2CCCC2)c2nc(Cc3cccc(O)c3)nc(=O)c1-2`: 195 to 197 °C; for `CC(C)Cc1cnc(N)c([N+](=O)[O-])c1`: 147 to 149 °C. Under `Cc1cc(C2N(c3ccccc3)CCN2c2ccccc2)cc(Cl)c1O` stands 146 to 147 °C; under `Cn1cncc1C(N)(c1ccc(Cl)cc1)c1ccc2c(c1)c(CCc1cccc(Cl)c1)cc(=O)n2C` (centres undefined), 165 °C; under `O=C(O)C1=Cc2cc(-c3ccc(Br)cc3)ccc2OC1C(F)(F)F` (centres undefined), 215 to 216 °C.

The compound `O=c1ccoc2c(C/C=C/c3ccccc3)c(OCc3ccccc3)ccc12` displayed a melting point of 131 to 133 °C.

Compound `Cc1cc(Nc2ccccc2)nc(N)n1` showed a melting point of 179 to 180 °C. Under `CC(C)(C)C(=O)CN1C(=O)c2ccccc2C1=O` stands 96 to 99 °C; under `COc1cc2c3c(nc4ccccc4c3c1)-c1ccccc1N2C`, 214 to 216 °C; under `Cc1ccc(N(CCN2CCC(C(=O)c3ccc(F)cc3)CC2)C(=O)c2cccc([N+](=O)[O-])c2)cc1`, 131 to 134 °C. Under `CC(C)CCCC(C)NC1=NS(=O)(=O)c2sc(Cl)cc2N1` (centres undefined) stands 197 to 199 °C. The same measure for `COC(=O)C(C)(C)OCc1cc2nc(C(F)(F)F)ccc2n1S(=O)(=O)c1ccc2ncsc2c1`: 124 to 127 °C; for `CCCCCCCCc1c(CCC)nc2ncnn2c1N`: 165 °C; for `COC(=O)c1cncn1C(c1ccccc1)c1ccccc1`: 129 °C. For the compound `CS(=O)(=O)NC(=O)CC1(c2ccc(OCc3ccc4ccccc4n3)cc2)CCCC1`, the melting point is 75 °C. Under `COc1cc2c(cc1OC)N(C)C(=O)CN=C2c1cccc(C(C)=O)c1` stands 148 to 150 °C; under `CC(C)N1Cc2cc(C(=O)O)ccc2N(CCN2CC=C(c3c[nH]c4cc(F)ccc34)CC2)S1(=O)=O`, 193 to 194 °C; under `CCCCCN(Cc1ccc(-c2ccccc2S(=O)(=O)NC(=O)c2ccccc2Cl)cc1)C(=O)N1CCc2ccccc21`, 83 to 85 °C. The same measure for `CC(C)(C)C(NC(=O)c1ccc(Cl)cc1)Nc1c(Nc2ccc(F)cc2)c(=O)c1=O` (centres undefined): 247 to 249 °C.

`CCOC(=O)c1cc(-n2c(=O)[nH]c3c(c2=O)CSC3)ccc1Cl` showed a melting point of 194 to 196 °C.

Take `Cc1nn(-c2ccc(F)cc2)cc1C(=O)N(C)c1ccc(OCC(C)(C)C)c(C#N)c1`: the melting point lay within 65 to 69 °C. Under `Cc1cnc2cc(N)ccc2n1` stands 163 to 164 °C; under `N#Cc1ccc(C(F)(F)F)cc1Sc1ccccc1`, 51 °C; under `O=C(O)c1cc(F)ccc1Nc1ccnc2cc(Cl)ccc12`, 341 to 342 °C. The same measure for `Nc1ccncc1Nc1ccc2[nH]ccc2c1`: 83 to 90 °C.

Consider `Cc1c(C(=O)Cl)ccc(S(C)(=O)=O)c1C1=NOCC1`, for which the melting point was in the range of 183 to 184 °C.

Turning to `COC(=O)c1ccccc1NS(=O)(=O)c1ccc(C(=O)NCCc2ccccc2)cc1`, the melting point was in the range of 167 to 168 °C.

Take `COc1cccc2c(=O)[nH]c(-c3ccccc3)cc12`: the melting point lay within 227 to 231 °C. Under `COCN1C(C)=C(C(=O)O)C(c2cccc(Cl)c2Cl)C(C(=O)O)=C1C` stands 155 to 156 °C; under `Cc1nc(C)n(-c2cc(C)c3[nH]c(=O)ccc3c2)c1[N+](=O)[O-]`, 244 to 247 °C; under `CCSc1ccc(NC(=S)NC(=O)OC)c([N+](=O)[O-])c1`, 152 °C.
